pKi: −log10 of the molar value. Where two headings read alike, the source gives them in different places.
Biological target: T1, cloned human dopamine D3 receptors (Homo sapiens, UniProt P35462)
T1 construct: expressed in transfected cells; membrane homogenate
Assay: [N-Methyl-3H]Spiroperidol binding to cloned human dopamine D3 receptors (Protocol 1)
Excerpt: [N-Methyl-^3H]Spiroperidol Binding to Cloned Human Dopamine D3 Receptors
This assay measures the in vitro activity of compounds on cloned human dopamine (D3) receptors and predicts the direct dopamine-blocking properties of putative neuropsychiatric agents at human dopamine D3 receptors.
The D3 gene was isolated from a human striatal cDNA library (Stratagene). The gene was sequenced and sub-cloned into the expression vector RC/RSV (Invitrogen). CHO (Chinese Hamster Ovary) cells were stably transfected with 10 μg of the D3/RSV plasmid using the DOTAP method from Boehringer Mannheim and 72 clones that were G418 resistant were isolated. Using mRNA and binding displacement data a single high expressing clone was identified. This clone was then grown in large batches for the purpose of developing a 96 well format assay.
• 1. One plate (10 cm) with approximately 2-3 million D3 cells per plate is incubated with 1 ml of Trypsin-EDTA at room temperature for ˜2 min or until cells have lifted off plates. Four ml of Ham's F12+10% Fetal Bovine Serum+1% Penicillin/Streptomycin+G418 (400 μg/ml) medium are added to resuspend cells and 1 ml of this is added to each large plate (15 cm) containing 19 ml of the-same medium as mentioned above. • 2. The 5 large plates are incubated at 37° C.+5% CO2 for ˜3 days or until the cells are confluent. • 3. After these plates are confluent, they are split into 10 large plates. Medium is aspirated off, 2 ml of Trypsin-EDTA are added to each plate and plates are incubated at RT for 2 min or until cells have lifted off the plate. Eight ml of the F12 medium (same medium as #1 above) are added to each plate (10 ml total) to resuspend the cells and 5 ml are transferred to the 2 new plates containing 15 ml of the F12 media. • 4. The 10 large plates are incubated at 37° C.+5% CO2 for ˜2 days or until the cells are confluent. • 5. The 10 large plates are split into 60 large plates (using Trypsin-EDTA as #3 except 4 ml of F12 medium are added to resuspend cells and 1 ml is aliquoted to 6 new plates containing 19 ml of F12 medium each). • 6. Plates are incubated at […]+5% CO2 for ˜3 days or until cell are confluent. • 7. The 60 large plates are then split into 60 roller bottles (100-150 million cells/bottle). Medium is aspirated off, 2 ml of Trypsin-EDTA are added to each plate and incubated at RT for ˜2 minutes or until cells have lifted off plates. Eight ml of F12 medium are added to each plate to resuspend cells and the entire 10 ml are added to 1 roller bottle containing 90 ml of the F12 medium. • 8. The 60 roller bottles are immediately placed on their sides and transferred to the roller bottle incubator. They are incubated at 37° C.+5% CO2 for ˜3-5 days. Cells are spun at 30-40% motor speed in the Forma incubator. • 9. Medium is poured off and cells are washed 2× in PBS. • 10. Cells are then scraped off in 20 ml of PBS and the bottles are rinsed again with 5 ml of PBS to remove any remaining cells. Cells are stored on ice before membrane preparation. • 11. The yield for 60 D3 roller bottles has varied from ˜260-500 mg. • Note: All tissue culture reagents are from Gibco-BRL. C. Membrane Preparation
The cells are harvested into 250 ml centrifuge tubes with 100 volumes of cold phosphate buffered saline (PBS) and spun down (1200×G for 10 min at 4° C.). The medium is removed and 100 ml PBS are added to each centrifuge tube, cells are resuspend and spun down again. The PBS is removed and the final pellet is homogenized in an appropriate volume of 10% DMSO with a polytron on ice at a medium setting.
1. 0.5M Tris Buffer, pH 7.7 • a) 44.4 g Tris HCl 26.5 g Tris Base q.s. to 1 Liter (0.5 M Tris buffer, pH 7.7 at 37° C.) • b) make a 1:10 dilution in distilled H2O (0.05 M. Tris buffer, pH 7.7) 2. Tris Buffer Containing Physiological Salts • a) Stock buffer • NaCl 7.014 g • KCl 0.372 g • CaCl2 0.222 g • MgCl2 0.204 g • q.s. To 100 ml with 0.5 M. Tris Buffer • b) Dilute 1:10 in distilled H2O […]

[1] = the 13th table, unit inferred, read-out: D3Ki

T1 sequence (P35462 whole entry): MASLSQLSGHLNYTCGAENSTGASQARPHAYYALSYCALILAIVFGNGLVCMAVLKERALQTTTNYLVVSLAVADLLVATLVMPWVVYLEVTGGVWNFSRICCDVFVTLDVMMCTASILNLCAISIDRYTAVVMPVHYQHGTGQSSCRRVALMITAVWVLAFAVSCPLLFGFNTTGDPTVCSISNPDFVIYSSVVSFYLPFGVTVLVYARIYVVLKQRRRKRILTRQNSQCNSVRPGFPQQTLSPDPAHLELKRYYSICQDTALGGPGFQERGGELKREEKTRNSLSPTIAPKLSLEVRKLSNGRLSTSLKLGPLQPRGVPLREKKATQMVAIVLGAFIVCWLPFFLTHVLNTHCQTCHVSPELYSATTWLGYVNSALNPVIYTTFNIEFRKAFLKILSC

COc1ccc(C(=O)NCCCCN2CCCN(c3csc4cc(F)ccc34)CC2)cc1 [S981845]
pKi [1]: 9.00

O=C(NCCCCN1CCCN(c2csc3cc(F)ccc23)CC1)c1ccc(F)cc1 [S981846]
pKi [1]: 7.57

O=C(NCCCCN1CCCN(c2csc3cc(F)ccc23)CC1)c1cc(Cl)cc(Cl)c1 [S981848]
pKi [1]: 8.08

O=C(NCCCCN1CCCN(c2csc3cc(F)ccc23)CC1)c1cc(F)cc(F)c1 [S981849]
pKi [1]: 8.30

O=C(/C=C/c1ccccc1)NCCCCN1CCCN(c2csc3cc(F)ccc23)CC1 [S981850]
pKi [1]: 9.31

O=C(NCCCCN1CCCN(c2csc3cc(F)ccc23)CC1)c1ccccc1I [S981851]
pKi [1]: 8.57

O=C(Cc1ccc(C(F)(F)F)cc1)NCCCCN1CCCN(c2csc3cc(F)ccc23)CC1 [S982508]
pKi [1]: 7.39

O=C(Cc1ccc(Cl)cc1)NCCCCN1CCCN(c2csc3cc(F)ccc23)CC1 [S982509]
pKi [1]: 7.89

COc1cccc(CC(=O)NCCCCN2CCCN(c3csc4cc(F)ccc34)CC2)c1 [S982510]
pKi [1]: 8.23

CS(=O)(=O)c1ccc(CC(=O)NCCCCN2CCCN(c3csc4cc(F)ccc34)CC2)cc1 [S982511]
pKi [1]: 7.92

O=C(Cc1ccccc1Br)NCCCCN1CCCN(c2csc3cc(F)ccc23)CC1 [S982512]
pKi [1]: 8.24

CC1(c2ccc(C(=O)NCCCCN3CCCN(c4csc5cc(F)ccc45)CC3)cc2)NC(=O)NC1=O (stereo not drawn) [S982513]
pKi [1]: 9.88

O=C(Cc1ccccc1F)NCCCCN1CCCN(c2csc3cc(F)ccc23)CC1 [S982514]
pKi [1]: 9.23

O=C(NCCCCN1CCCN(c2csc3cc(F)ccc23)CC1)c1cc([N+](=O)[O-])cc([N+](=O)[O-])c1 [S982535]
pKi [1]: 8.28

O=C(NCCCCN1CCCN(c2csc3cc(F)ccc23)CC1)c1cccc2c1-c1ccccc1C2=O [S982536]
pKi [1]: 8.85

O=C(NCCCCN1CCCN(c2csc3cc(F)ccc23)CC1)c1ccc2c(c1)C(=O)c1ccccc1-2 [S982538]
pKi [1]: 9.29

O=C(NCCCCN1CCCN(c2csc3cc(F)ccc23)CC1)c1ccc2c(c1)S(=O)(=O)c1ccccc1C2=O [S982539]
pKi [1]: 9.10

O=C(NCCCCN1CCCN(c2csc3cc(F)ccc23)CC1)c1cc(Cl)ccc1[N+](=O)[O-] [S982540]
pKi [1]: 8.92

O=C(NCCCCCN1CCCN(c2csc3cc(F)ccc23)CC1)c1c2ccccc2cc2ccccc12 [S982542]
pKi [1]: 7.24

O=C(NCCCCCN1CCCN(c2csc3cc(F)ccc23)CC1)c1cccs1 [S984485]
pKi [1]: 7.50

O=C(NCCCCCN1CCCN(c2csc3cc(F)ccc23)CC1)c1cccc(Cl)c1 [S984486]
pKi [1]: 7.50

COc1cc(OC)cc(C(=O)NCCCCCN2CCCN(c3csc4cc(F)ccc34)CC2)c1 [S984487]
pKi [1]: 7.50

O=C(NCCCCCN1CCCN(c2csc3cc(F)ccc23)CC1)c1cccc2ccccc12 [S984489]
pKi [1]: 7.38

O=C(NCCCCCN1CCCN(c2csc3cc(F)ccc23)CC1)c1ccc2ccccc2c1 [S984490]
pKi [1]: 7.81

O=C(NCCCCCN1CCCN(c2csc3cc(F)ccc23)CC1)c1cccc(C(F)(F)F)c1 [S984491]
pKi [1]: 7.27

COc1ccccc1C(=O)NCCCCCN1CCCN(c2csc3cc(F)ccc23)CC1 [S984492]
pKi [1]: 7.46

O=C(NCCCCCN1CCCN(c2csc3cc(F)ccc23)CC1)c1cccc(F)c1 [S984493]
pKi [1]: 7.59

O=C(NCCCCCN1CCCN(c2csc3cc(F)ccc23)CC1)c1cc2ccccc2s1 [S984494]
pKi [1]: 7.94

O=C(NCCCCCN1CCCN(c2csc3cc(F)ccc23)CC1)c1cccc2cc[nH]c12 [S984495]
pKi [1]: 7.58

CS(=O)(=O)c1sc(C(=O)NCCCCCN2CCCN(c3csc4cc(F)ccc34)CC2)c2c1CCC=C2 [S984496]
pKi [1]: 8.07

O=C(NCCCCCN1CCCN(c2csc3cc(F)ccc23)CC1)c1cnc(-c2cccnc2)s1 [S984497]
pKi [1]: 7.31

O=C(NCCCCCN1CCCN(c2csc3cc(F)ccc23)CC1)c1csnn1 [S984498]
pKi [1]: 7.40

O=C(NCCCCCN1CCCN(c2csc3cc(F)ccc23)CC1)c1sccc1-n1cccc1 [S984499]
pKi [1]: 7.55

O=C(NCCCCCN1CCCN(c2csc3cc(F)ccc23)CC1)c1ccc(-c2ccccn2)s1 [S984501]
pKi [1]: 7.80

O=C(NCCCCCN1CCCN(c2csc3cc(F)ccc23)CC1)c1cc2sccc2s1 [S984502]
pKi [1]: 8.19

Cc1nn(C)c2sc(C(=O)NCCCCCN3CCCN(c4csc5cc(F)ccc45)CC3)cc12 [S984503]
pKi [1]: 7.99

O=C(NCCCCCN1CCCN(c2csc3cc(F)ccc23)CC1)c1cc2ccccc2[nH]1 [S984504]
pKi [1]: 7.77

COc1ccc2[nH]c(C(=O)NCCCCCN3CCCN(c4csc5cc(F)ccc45)CC3)cc2c1 [S984505]
pKi [1]: 7.89

Cn1c(C(=O)NCCCCCN2CCCN(c3csc4cc(F)ccc34)CC2)cc2ccccc21 [S984506]
pKi [1]: 7.48

O=C(NCCCCCN1CCCN(c2csc3cc(F)ccc23)CC1)c1c[nH]c2ccccc12 [S984507]
pKi [1]: 7.21

O=C(NCCCCCN1CCCN(c2csc3cc(F)ccc23)CC1)c1cccc2[nH]ccc12 [S984508]
pKi [1]: 7.46

O=C(NCCCCCN1CCCN(c2csc3cc(F)ccc23)CC1)c1ccc2[nH]ccc2c1 [S984509]
pKi [1]: 7.92

O=C(NCCCCCN1CCCN(c2csc3cc(F)ccc23)CC1)c1ccc2cc[nH]c2c1 [S984510]
pKi [1]: 8.00

O=C(NCCCCCN1CCCN(c2csc3cc(F)ccc23)CC1)c1n[nH]c2ccccc12 [S984511]
pKi [1]: 7.60

O=C(NCCCCN1CCCN(c2csc3cc(C(F)(F)F)ccc23)CC1)c1cc2ccccc2o1 [S984513]
pKi [1]: 7.72

O=C(NCCCCN1CCCN(c2csc3cc(F)ccc23)CC1)c1ccc(C(F)(F)F)cc1 [S9818147]
pKi [1]: 7.51

O=C(NCCCCCN1CCCN(c2csc3cc(F)ccc23)CC1)c1ccc(OC(F)(F)F)cc1 [S9894488]
pKi [1]: 7.62

O=C(NCCCCN1CCC(c2noc3ccsc23)CC1)c1ccc2ccccc2c1 [compound 81514]
pKi [1]: 6.72

COc1cc(OC)cc(C(=O)NCCCCN2CCCN(c3csc4cc(F)ccc34)CC2)c1 [compound 82251]
pKi [1]: 7.96

CC(C)C(=O)NCCCCN1CCN(c2csc3cc(C(F)(F)F)ccc23)CC1 [compound 811700]
pKi (read-out: D3K1): 7.38

O=C(NCCCCN1CCN(c2csc3cc(C(F)(F)F)ccc23)CC1)c1cccs1 [compound 811708]
pKi (read-out: D3K1): 8.24

O=C(NCCCCN1CCN(c2c(Cl)sc3cc(F)ccc23)CC1)C(F)(F)F [compound 814854]
pKi (read-out: D3K1): 7.46

CCOc1ccc(C(=O)NCCCCN2CCN(c3c(Cl)sc4cc(F)ccc34)CC2)cc1 [compound 815052]
pKi (read-out: D3K1): 8.27

O=C(NCCCCN1CCN(c2c(Cl)sc3cc(F)ccc23)CC1)c1ccc(F)cc1F [compound 815053]
pKi (read-out: D3K1): 8.24

O=C(NCCCCN1CCN(c2c(Cl)sc3cc(F)ccc23)CC1)c1c(F)cc(F)cc1F [compound 815054]
pKi (read-out: D3K1): 8.11

O=C(NCCCCN1CCN(c2c(Cl)sc3cc(F)ccc23)CC1)c1ccc2c(c1)OCO2 [compound 815055]
pKi (read-out: D3K1): 8.46

O=C(NCCCCN1CCN(c2c(Cl)sc3cc(F)ccc23)CC1)c1sc2ccccc2c1Cl [compound 815057]
pKi (read-out: D3K1): 7.91

O=C(NCCCCN1CCN(c2c(Cl)sc3cc(F)ccc23)CC1)c1cccs1 [compound 815058]
pKi (read-out: D3K1): 8.37

O=C(NCCCCN1CCN(c2c(Cl)sc3cc(F)ccc23)CC1)c1ccc(-c2ccccc2)cc1 [compound 815059]
pKi (read-out: D3K1): 7.86

O=C(NCCCCN1CCN(c2c(Cl)sc3cc(F)ccc23)CC1)c1ccc(Cl)cc1 [compound 815060]
pKi (read-out: D3K1): 8.21

From US7550469B2, “Heterocyclic amide derivatives and their use as dopamine D3 receptor ligands” (Aventis Pharmaceuticals Inc., priority 2001, dated 2009)
